{"source": "patent US20260256799A1", "about": "“INHIBITORS FOR TREATING SOLID TUMOURS” (UNIVERSITY OF SOUTHAMPTON, priority 2023, published 2026)", "key": {"[1]": {"tested_on": "TC-1 cells + TGF-β1-treated murine lung fibroblasts (myoMLF)", "assay": "Isograft model TC-1 + myoMLF (myoCAF-high tumours)", "assay_type": "in vivo, C57/BL6 female mice", "protocol": "SMA immunohistochemistry (IHC; Sigma Aldrich; A2547) on FFPE tissues was performed as previously: in brief, tissues were fixed in 4% paraformaldehyde and embedded in paraffin. 4 μm sections were de-paraffinized, rehydrated and antigen retrieved for 20 minutes at 97° C. using a predefined program on the Dako PT links. Antigen retrieval was performed using Envision FLEX High pH. Endogenous peroxidase activity was blocked using 3% hydrogen peroxide. Mouse Ig blocking reagent (M.O.M kit vector labs) was applied for 1 hour. Primary antibody incubation (1:100) in M.O.M diluent (vector labs) was for 20 minutes. For secondary amplification, M.O.M. Biotinylated anti-Mouse IgG reagentwas applied for 10 minutes followed by Vectorstain elite ABC reagent (vector labs). Chromogenic visualization was completed with 2×5 minute washes in DAB and counterstaining with Haematoxylin. For IHC of CD8 (in house; YTS169), CD4 (BD; RM4-5) and F480 (AbD Serotec; CI:A3-1) tissues were frozen in OCT. 8 μm sections were fixed in 100% acetone for 10 minutes. Endogenous peroxidase activity was blocked using neat peroxidase suppressor (Peirce) for 15 minutes. Sections were blocked for 30 minutes with 2.5% goat serum. Primary antibodies were applied for 2 hours −CD8 (1:800), CD4 (1:100), F480 (1:100). Appropriate species HRP polymer (ImmunoPress, Vector Laboratories) was applied to sections for 30 minutes. Vector NovaRED chromagen substrate (Vector Laboratories) was applied for 2-10 minutes then counterstained with haematoxylin (Vector Laboratories) for 30 seconds. Images were captured using an Olympus CKX41 microscope with Cell B imaging software. % area of staining was calculated using Fiji software (java) by running the ‘color deconvolution’ tool analyzing H DAB. The image was appropriately thresholded based on the ‘color 2’ image. The same thresholding was applied to all images from the same experiment. Regions of interest (margin & core) were confirmed by a pathologist, and each point plotted represents the mean of a minimum of 4 independent fields of view (field diameter=2 mm) from margin and core (one section per mouse). The mean was calculated from 2 or 3 mice/experimental group.\nQuantification of SMA staining in mouse tumours was carried out using color thresholding and deconvolution in Fiji. At least three independent fields of view (FoV) of at least three tumours were randomly selected by a consultant pathologist (GJT) to generate a mean value per tumour representing the SMA-positive area %, which was compared between treatment groups.\nCD8 and CD4 IHC was performed on frozen tissue embedded in OCT using [YTS169 (CD8; in house) and RM4-5 (CD4; BD) (FIG. 6c & FIG. 12e). 8 μm sections were fixed in 100% acetone for 10 minutes and stained as previously shown. CD8 and CD4 IHC on FFPE was performed using 98941S and 25229S respectively (Cell Signaling; FIG. 6a,g,k,o and FIG. 12a-c,g & 13m,o) using the Leica Bond system according to the manufacturer's instructions (Protocol F mouse 4; HIER 20 MINUTES ER1; Temperature-Ambient; 1:100 dilution; 20 min of NGS blocking incubation). CD8 and CD4 T-cells were counted from ten randomly selected fields of view (FoV) from the tumour by a consultant pathologist (GJT).\n(§1) All mouse experiments were performed according to national and international guidelines and were approved by the authors' institutional review board and the UK Home Office. Xenograft model: 6.7×10^5 PT cells±2×10^6 HFFF2 cells were resuspended in 100 μl PBS and injected s.c. in the flank of partially immunocompromised, male RAG1−/−C57BL/6 mice (3-5 months old). Isograft models: 0.5×10^5 TC-1 cells±3×10^5 TGF-β1-treated murine lung fibroblasts (myoMLFs) or 1×10^5 MC38 cells±5×10^5 TGF-β1-treated murine colon fibroblasts (myoMCFs) were resuspended in 100 μl PBS and injected s.c. in the flank of C57/BL6 female mice (6-8 weeks old). 5-8 animals for both models were used per group. […]"}, "[2]": {"conditions": "monotherapy, dose escalation phase 1; cited from earlier work"}, "TC-1 cells": {"tested_on": "TC-1 cells", "assay": "Isograft model TC-1 alone (control, myoCAF-low tumours)", "assay_type": "in vivo, C57/BL6 female mice", "conditions": "AZD0156 20 mg/Kg oral gavage daily", "protocol": "as §1, with “group. Tumour size was measured over time using an electronic caliper and calculated using the formula 4π/3×r3 [radius (r) calculated from the average diameter, measured as the tumour width and length].” for “group.”\nThe area under the curve (AUC) for each individual tumour within a treatment group for multiple experiments was analyzed by ordinary Two-way Anova using as two independent variables ‘the experiments’ (factor 1) and ‘the treatments’ (factor 2), and as dependent variable ‘the AUC’ of each mouse; then, the inventors looked at just factor 2. […]"}, "[3]": {"conditions": "AZD0156 20 mg/Kg oral gavage daily"}, "[4]": {"conditions": "AZD0156, myoCAF-high TC-1 tumours"}}, "data": [{"smiles": "CN(C)CCCOc1ccc(-c2ccc3ncc4c(c3c2)n(C2CCOCC2)c(=O)n4C)cn1", "note": "[AZD0156]", "values": [{"measurement": "myofibroblast accumulation (SMA IHC)", "setting": "[1]; [3]", "result": "suppressed"}, {"measurement": "tumour growth", "setting": "[1]; [3]", "result": "slowed"}, {"measurement": "CD4 T-cell infiltration (IHC)", "setting": "[1]; [4]", "result": "unaffected"}, {"measurement": "location of CD8 T-cells, tumour periphery to tumour core (IHC)", "setting": "[1]; [4]", "result": "significant relocation"}, {"measurement": "CD8 T-cell phenotype/function (flow cytometry)", "setting": "[1]; AZD0156, myoCAF-high tumours", "result": "did not affect"}, {"measurement": "overall survival", "setting": "[1]; AZD0156 daily at day 15-28", "result": "improved"}, {"measurement": "intratumoural myoCAF accumulation", "setting": "[1]; AZD0156 monotherapy in the RAH vaccine experiment", "result": "effective in reducing"}, {"measurement": "adverse effects", "setting": "[2]", "result": "not yet reporting to be associated with adverse effects"}, {"measurement": "growth of control (myoCAF-low) tumours", "setting": "TC-1 cells", "result": "minimal effect"}]}]}
